This note sets out measurements from patent US12551576B2, “Chemiluminescent probes” (The General Hospital Corporation, priority 2020, dated 2026).

A short description of data set [1]: Fluorescence and chemiluminescence spectral studies. In kind it is physicochemical. Here is the method: Materials and Methods: reagents used for the synthesis were purchased from Sigma-Aldrich and used without further purification. Column chromatography was performed on a glass column slurry-packed with silica gel (60 Å, […]; SiliCycle Inc.). Recombinant Aβ peptide (1-40/42) were purchased from rPeptide (A-1163-1). Aβ aggregates for in vitro studies were generated by slow stirring of Aβ40 in PBS buffer for 3 days at room temperature. ^1H and ^13C NMR spectra were recorded at 500 MHz and 125 MHz on Bruker spectrometers in CDCl3, CD3OD or DMSO-d6 solutions at room temperature with tetramethylsilane (TMS, δ=0) as an internal standard. Liquid chromatography-mass spectrometry (LC-MS) was performed using an Agilent 1200 Series apparatus with an LC/MSD trap and Daly conversion dynode detector with UV detection at 254 nm. Fluorescence measurements were carried out using an F-7100 fluorescence spectrophotometer (Hitachi). Transgenic female 5×FAD mice and age-matched wild-type female mice were purchased from Jackson Laboratory. All animal experiments were approved by the Institutional Animal Use and Care Committee at Massachusetts General Hospital. The IVIS Spectrum animal imaging system (PerkinElmer) was used for in vitro and in vivo imaging.
Fluorescence spectral studies: Normally, all chemiluminescent molecules are fluorescent. The excitation and emission spectra of ADLumin-X were recorded and the emission peak of ADLumin-1 was around 590 nm (FIG. 1D) in DMSO, which is considerably longer than most of the commercially available chemiluminescence probes. The emission of ADLumin-2 is longer than that of ADLumin-1, due to its additional double-bond. (the emission peak of ADLumin-2 was 20 nm longer). […] Based on this fact, ADLumin-1 was used throughout this example, due to its high QY.
Chemiluminescence spectral studies: ADLumin-1 is stable in PBS buffer and organic solvents, including acetonitrile, dichloromethane and methanol. […] Without being bound by any theory, it is believed that the luminescence was due to the auto-oxidation of ADLumin-1. Although the mechanism of chemiluminescence of IPO derivatives has been studied, the mechanism of auto-oxidation has been rarely explored. In the course of the experiments, ADLumin-1 emitted very strong luminescence in pure DMSO (FIG. 2b). Unexpectedly, if the ADLumin-1 DMSO solution was stirred, even stronger luminescence can be detected (3.4-fold in FIG. 2b). Without being bound by any theory, it is believed that the luminescence was related to oxygen levels in DMSO. […] However, the increasing-fold decreased with cycles (FIG. 2c). […] Since no ROS were added into the DMSO solution, it is reasonable to infer that the auto-oxidation of ADLumin-1 was oxygen-level dependent. It is worthy to note that green fluorescent protein and luciferase/luciferin also dependent on oxygen for their proper imaging functions.

Data set [2] has as its system PA-K2. Nature of the data set: ThT fluorescence test with PA-K and PA-K2. In kind it is binding.
In data set [3] the test system is misfoldons in serum. Nature of the data set: ThT test of misfoldons in serum. Set-up: species or system human. Particulars: some misfoldons. The text has this: However, the detected difference was much smaller than that by ADLumin-1.
Data set [4] has as its target Aβ40 aggregates (Homo sapiens, UniProt P05067). Nature of the data set: In vitro chemiluminescence study with Aβ aggregates in PBS. In kind it is binding. Particulars: pH 7.4.

Aβ40 aggregates, sequence (P05067 672-711 limits assumed): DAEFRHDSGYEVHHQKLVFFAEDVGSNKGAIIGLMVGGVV

Take `Cc1nc2c[nH]c(/C=C/C=C/C=C/c3ccc(N(C)C)cc3)cn-2c1=O` [ADLumin-2, 6-((1E,3E,5E)-6-(4-(dimethylamino)phenyl)hexa-1,3,5-trien-1-yl)-2-methylimidazo[1,2-a]pyrazin-3(7H)-one]: the “quantum yield ratio ΦADLumin-1/ΦADLumin-2” value in data set [1] stood at 1.5. Further, the “emission peak longer than that of ADLumin-1” value in data set [1] (fluorescence, DMSO) is listed as 20 nm.
For `Cc1ccc2c(c1)sc(-c1ccc(N(C)C)cc1)[n+]2C.[Cl-]` [ThT, Thioflavin T], the “difference lower than the difference provided by ADLumin-1” value in data set [2] came out at 11.8 fold. In data set [2] (ThT 0.01 mg/ml), the “fluorescence difference between PA-K and PA-K2” value is “about 4.01 fold”. For the same compound, the “peptide concentration at which the difference PA-K vs PA-K2 is detected” value in data set [2] (fluorescence) was 0.1 mg/mL. The “ThT signal for misfoldons in serum” value in data set [3] was “slightly higher signal”.
For the compound MCLA [reference compound], the “chemiluminescence signal with Aβs” value in data set [4] is “significantly reduced signal”.
For firefly luciferin [reference compound], in data set [1], the “emission peak (FWHM comparison)” value is reported as 570 nm and the “full width at half-maximum (FWHM)” value stood at 83 nm.
